What was measured:
[1] = value reported by the manufacturer of the commercial product, a rough average, or inventors' judgment; cited from earlier work
[2] = Surfactant combinations giving clear aqueous dispersions (maximum hydrophobic surfactant, visual optical clarity); conditions: for effect of added solubilizer on the relative amount of hydrophobic surfactant that can be used: Cremophor RH 40 hydrophilic surfactant, 20% solubilizer; for approximate maximum grams of hydrophobic surfactant per 100 g of hydrophilic surfactant giving acceptable optical clarity: 10× aqueous dispersion, no solubilizer; for maximum hydrophobic surfactant concentration giving a clear aqueous dispersion: Arlacel 186 - Cremophor RH-40 pair
[3] = hydrophilic surfactant Cremophor RH40 + 20% Ethanol
[4] = hydrophilic surfactant Cremophor RH40 + 20% Glycofurol
[5] = hydrophilic surfactant Cremophor RH40 + 20% PEG-400
[6] = hydrophilic surfactant Cremophor RH40 + 20% Triacetin
[7] = hydrophilic surfactant Cremophor RH40, solubilizer (None), reproduced from Table 19
[8] = hydrophilic surfactant PEG-8 Capric/Caprylic (Labrasol)
[9] = hydrophilic surfactant PEG-25 Glyceryl trioleate (Tagat TO)
[10] = hydrophilic surfactant PEG-35 Castor Oil (Incrocas 35)
[11] = hydrophilic surfactant PEG-40H Castor Oil (Cremophor RH-40)
[12] = hydrophilic surfactant PEG-60 Corn Oil (Crovol M-70)
[13] = hydrophilic surfactant Polysorbate 80 (Tween 80)
[14] = hydrophilic surfactant Polysorbate-20 (Tween 20)
[15] = weight percent of solubilizer 0
[16] = weight percent of solubilizer 20
[17] = weight percent of solubilizer 50

CCCCCCCC(=O)OCC(C)OC(=O)CCCCCCC (centres unmarked) [Propylene glycol dioctanoate]
HLB [1]: <6

PEG-10 soya sterol
HLB [1]: <10

PEG-5 soya sterol
HLB [1]: <10

CCCCCCCC/C=C\CCCCCCCC(=O)OCC(COC(=O)CCCCCCC/C=C\CCCCCCCC)(COC(=O)CCCCCCC/C=C\CCCCCCCC)COC(=O)CCCCCCC/C=C\CCCCCCCC [Pentaerythrityl tetraoleate]
HLB [1]: >10

PEG-20 sorbitan monolaurate
approximate maximum grams of hydrophobic surfactant (Arlacel 186) per 100 g of hydrophilic surfactant giving a clear aqueous dispersion ([2]; hydrophobic surfactant Arlacel 186 + 20% Ethanol): 25 g per 100 g of hydrophilic sur | approximate maximum grams of hydrophobic surfactant (Arlacel 186) per 100 g of hydrophilic surfactant giving a clear aqueous dispersion ([2]; hydrophobic surfactant Arlacel 186 + 20% Triacetin): 25 g per 100 g of hydrophilic sur | approximate maximum grams of hydrophobic surfactant (Arlacel 186) per 100 g of hydrophilic surfactant giving a clear aqueous dispersion ([2]; hydrophobic surfactant Arlacel 186, solubilizer (None), from Table 19): 20 g per 100 g of hydrophilic sur

Sorbitan monooleate
effect of added solubilizer on the relative amount of hydrophobic surfactant that can be used [2]: decreases | approximate maximum grams of hydrophobic surfactant per 100 g of hydrophilic surfactant giving a clear aqueous dispersion [2, 3]: 40 g per 100 g of hydrophilic sur | approximate maximum grams of hydrophobic surfactant per 100 g of hydrophilic surfactant giving a clear aqueous dispersion [2, 4]: 30 g per 100 g of hydrophilic sur | approximate maximum grams of hydrophobic surfactant per 100 g of hydrophilic surfactant giving a clear aqueous dispersion [2, 5]: 25 g per 100 g of hydrophilic sur | approximate maximum grams of hydrophobic surfactant per 100 g of hydrophilic surfactant giving a clear aqueous dispersion [2, 6]: 40 g per 100 g of hydrophilic sur | approximate maximum grams of hydrophobic surfactant per 100 g of hydrophilic surfactant giving a clear aqueous dispersion [2, 7]: 65 g per 100 g of hydrophilic sur | approximate maximum grams of hydrophobic surfactant per 100 g of hydrophilic surfactant giving acceptable optical clarity [2, 8]: 15 g per 100 g of hydrophilic sur | approximate maximum grams of hydrophobic surfactant per 100 g of hydrophilic surfactant giving acceptable optical clarity [2, 9]: 10 g per 100 g of hydrophilic sur | approximate maximum grams of hydrophobic surfactant per 100 g of hydrophilic surfactant giving acceptable optical clarity [2, 10]: 25 g per 100 g of hydrophilic sur | approximate maximum grams of hydrophobic surfactant per 100 g of hydrophilic surfactant giving acceptable optical clarity [2, 11]: 65 g per 100 g of hydrophilic sur | approximate maximum grams of hydrophobic surfactant per 100 g of hydrophilic surfactant giving acceptable optical clarity [2, 12]: 20 g per 100 g of hydrophilic sur | approximate maximum grams of hydrophobic surfactant per 100 g of hydrophilic surfactant giving acceptable optical clarity [2, 13]: 5 g per 100 g of hydrophilic sur | approximate maximum grams of hydrophobic surfactant per 100 g of hydrophilic surfactant giving acceptable optical clarity [2, 14]: 5 g per 100 g of hydrophilic sur

PEG-3 oleyl ether
approximate maximum grams of hydrophobic surfactant per 100 g of hydrophilic surfactant giving acceptable optical clarity [2, 8]: 25 g per 100 g of hydrophilic sur | approximate maximum grams of hydrophobic surfactant per 100 g of hydrophilic surfactant giving acceptable optical clarity [2, 9]: 10 g per 100 g of hydrophilic sur | approximate maximum grams of hydrophobic surfactant per 100 g of hydrophilic surfactant giving acceptable optical clarity [2, 10]: 20 g per 100 g of hydrophilic sur | approximate maximum grams of hydrophobic surfactant per 100 g of hydrophilic surfactant giving acceptable optical clarity [2, 11]: 30 g per 100 g of hydrophilic sur | approximate maximum grams of hydrophobic surfactant per 100 g of hydrophilic surfactant giving acceptable optical clarity [2, 12]: 20 g per 100 g of hydrophilic sur | approximate maximum grams of hydrophobic surfactant per 100 g of hydrophilic surfactant giving acceptable optical clarity [2, 13]: 20 g per 100 g of hydrophilic sur | approximate maximum grams of hydrophobic surfactant per 100 g of hydrophilic surfactant giving acceptable optical clarity [2, 14]: 25 g per 100 g of hydrophilic sur

tetrahydrofurfuryl alcohol PEG ether [Glycofurol]
maximum hydrophobic surfactant concentration giving a clear aqueous dispersion [2, 15]: 20 g per 100 g of hydrophilic sur | maximum hydrophobic surfactant concentration giving a clear aqueous dispersion [2, 16]: 25 g per 100 g of hydrophilic sur | maximum hydrophobic surfactant concentration giving a clear aqueous dispersion [2, 17]: 30 g per 100 g of hydrophilic sur

Propylene glycol dicaprylate/dicaprate
HLB [1]: <6

CCCCCCCCCCCCOCCOCCOCCOCCO [PEG-4 lauryl ether]
approximate maximum grams of hydrophobic surfactant per 100 g of hydrophilic surfactant giving acceptable optical clarity [2, 8]: 90 g per 100 g of hydrophilic sur | approximate maximum grams of hydrophobic surfactant per 100 g of hydrophilic surfactant giving acceptable optical clarity [2, 9]: 10 g per 100 g of hydrophilic sur | approximate maximum grams of hydrophobic surfactant per 100 g of hydrophilic surfactant giving acceptable optical clarity [2, 10]: 40 g per 100 g of hydrophilic sur | approximate maximum grams of hydrophobic surfactant per 100 g of hydrophilic surfactant giving acceptable optical clarity [2, 11]: 45 g per 100 g of hydrophilic sur | approximate maximum grams of hydrophobic surfactant per 100 g of hydrophilic surfactant giving acceptable optical clarity [2, 13]: 70 g per 100 g of hydrophilic sur | approximate maximum grams of hydrophobic surfactant per 100 g of hydrophilic surfactant giving acceptable optical clarity [2, 14]: 95 g per 100 g of hydrophilic sur

CCCCCCCCCCCCCCCCCC(=O)OCC(C)OC(=O)CCCCCCCCCCCCCCCCC (centres unmarked) [Propylene glycol distearate]
HLB [1]: >6

PEG 400-100O monostearate
HLB [1]: >10

CC(C)CCC[C@@H](C)[C@H]1CC[C@H]2[C@@H]3CC=C4C[C@@H](O)CC[C@]4(C)[C@H]3CC[C@]12C [Cholesterol]
HLB [1]: <10

PEG-24 cholesterol ether
HLB [1]: >10

CCO [Ethanol]
maximum hydrophobic surfactant concentration giving a clear aqueous dispersion [2, 15]: 20 g per 100 g of hydrophilic sur | maximum hydrophobic surfactant concentration giving a clear aqueous dispersion [2, 16]: 25 g per 100 g of hydrophilic sur | maximum hydrophobic surfactant concentration giving a clear aqueous dispersion [2, 17]: 30 g per 100 g of hydrophilic sur

PEG-30 soya sterol
HLB [1]: >10

CCCCCCCCCCCC(=O)OCC(C)OC(=O)CCCCCCCCCCC (centres unmarked) [Propylene glycol dilaurate]
HLB [1]: >6

PEG-400
maximum hydrophobic surfactant concentration giving a clear aqueous dispersion [2, 15]: 20 g per 100 g of hydrophilic sur | maximum hydrophobic surfactant concentration giving a clear aqueous dispersion [2, 16]: 25 g per 100 g of hydrophilic sur | maximum hydrophobic surfactant concentration giving a clear aqueous dispersion [2, 17]: 25 g per 100 g of hydrophilic sur

Glyceryl mono-, dioleate
approximate maximum grams of hydrophobic surfactant per 100 g of hydrophilic surfactant giving acceptable optical clarity [2, 8]: 25 g per 100 g of hydrophilic sur | approximate maximum grams of hydrophobic surfactant per 100 g of hydrophilic surfactant giving acceptable optical clarity [2, 9]: 10 g per 100 g of hydrophilic sur | approximate maximum grams of hydrophobic surfactant per 100 g of hydrophilic surfactant giving acceptable optical clarity [2, 11]: 10 g per 100 g of hydrophilic sur | approximate maximum grams of hydrophobic surfactant per 100 g of hydrophilic surfactant giving acceptable optical clarity [2, 12]: 10 g per 100 g of hydrophilic sur

CCCCCCCC/C=C\CCCCCCCC(=O)OCC(O)CO (centres unmarked) [Glyceryl monooleate (C18:1), Glyceryl monooleate]
effect of added solubilizer on the relative amount of hydrophobic surfactant that can be used [2]: moderate | approximate maximum grams of hydrophobic surfactant per 100 g of hydrophilic surfactant giving a clear aqueous dispersion [2, 3]: 42 g per 100 g of hydrophilic sur | approximate maximum grams of hydrophobic surfactant per 100 g of hydrophilic surfactant giving a clear aqueous dispersion [2, 4]: 44 g per 100 g of hydrophilic sur | approximate maximum grams of hydrophobic surfactant per 100 g of hydrophilic surfactant giving a clear aqueous dispersion [2, 5]: 40 g per 100 g of hydrophilic sur | approximate maximum grams of hydrophobic surfactant per 100 g of hydrophilic surfactant giving a clear aqueous dispersion [2, 6]: 40 g per 100 g of hydrophilic sur | approximate maximum grams of hydrophobic surfactant per 100 g of hydrophilic surfactant giving a clear aqueous dispersion [2, 7]: 40 g per 100 g of hydrophilic sur | approximate maximum grams of hydrophobic surfactant per 100 g of hydrophilic surfactant giving acceptable optical clarity [2, 8]: 35 g per 100 g of hydrophilic sur | approximate maximum grams of hydrophobic surfactant per 100 g of hydrophilic surfactant giving acceptable optical clarity [2, 9]: 10 g per 100 g of hydrophilic sur | approximate maximum grams of hydrophobic surfactant per 100 g of hydrophilic surfactant giving acceptable optical clarity [2, 10]: 15 g per 100 g of hydrophilic sur | approximate maximum grams of hydrophobic surfactant per 100 g of hydrophilic surfactant giving acceptable optical clarity [2, 11]: 40 g per 100 g of hydrophilic sur | approximate maximum grams of hydrophobic surfactant per 100 g of hydrophilic surfactant giving acceptable optical clarity [2, 12]: 10 g per 100 g of hydrophilic sur | approximate maximum grams of hydrophobic surfactant per 100 g of hydrophilic surfactant giving acceptable optical clarity [2, 13]: 12 g per 100 g of hydrophilic sur | approximate maximum grams of hydrophobic surfactant per 100 g of hydrophilic surfactant giving acceptable optical clarity [2, 14]: 10 g per 100 g of hydrophilic sur

Polyglyceryl-6 dioleate
approximate maximum grams of hydrophobic surfactant per 100 g of hydrophilic surfactant giving acceptable optical clarity [2, 8]: 35 g per 100 g of hydrophilic sur | approximate maximum grams of hydrophobic surfactant per 100 g of hydrophilic surfactant giving acceptable optical clarity [2, 9]: 10 g per 100 g of hydrophilic sur | approximate maximum grams of hydrophobic surfactant per 100 g of hydrophilic surfactant giving acceptable optical clarity [2, 10]: 10 g per 100 g of hydrophilic sur | approximate maximum grams of hydrophobic surfactant per 100 g of hydrophilic surfactant giving acceptable optical clarity [2, 11]: 5 g per 100 g of hydrophilic sur | approximate maximum grams of hydrophobic surfactant per 100 g of hydrophilic surfactant giving acceptable optical clarity [2, 12]: 10 g per 100 g of hydrophilic sur | approximate maximum grams of hydrophobic surfactant per 100 g of hydrophilic surfactant giving acceptable optical clarity [2, 13]: 10 g per 100 g of hydrophilic sur | approximate maximum grams of hydrophobic surfactant per 100 g of hydrophilic surfactant giving acceptable optical clarity [2, 14]: 35 g per 100 g of hydrophilic sur

Sorbitan monolaurate
approximate maximum grams of hydrophobic surfactant per 100 g of hydrophilic surfactant giving a clear aqueous dispersion [2, 4]: 65 g per 100 g of hydrophilic sur | approximate maximum grams of hydrophobic surfactant per 100 g of hydrophilic surfactant giving a clear aqueous dispersion [2, 6]: 65 g per 100 g of hydrophilic sur | approximate maximum grams of hydrophobic surfactant per 100 g of hydrophilic surfactant giving a clear aqueous dispersion [2, 7]: 20 g per 100 g of hydrophilic sur | approximate maximum grams of hydrophobic surfactant per 100 g of hydrophilic surfactant giving acceptable optical clarity [2, 8]: 30 g per 100 g of hydrophilic sur | approximate maximum grams of hydrophobic surfactant per 100 g of hydrophilic surfactant giving acceptable optical clarity [2, 9]: 10 g per 100 g of hydrophilic sur | approximate maximum grams of hydrophobic surfactant per 100 g of hydrophilic surfactant giving acceptable optical clarity [2, 10]: 30 g per 100 g of hydrophilic sur | approximate maximum grams of hydrophobic surfactant per 100 g of hydrophilic surfactant giving acceptable optical clarity [2, 11]: 20 g per 100 g of hydrophilic sur | approximate maximum grams of hydrophobic surfactant per 100 g of hydrophilic surfactant giving acceptable optical clarity [2, 12]: 15 g per 100 g of hydrophilic sur | approximate maximum grams of hydrophobic surfactant per 100 g of hydrophilic surfactant giving acceptable optical clarity [2, 13]: 10 g per 100 g of hydrophilic sur | approximate maximum grams of hydrophobic surfactant per 100 g of hydrophilic surfactant giving acceptable optical clarity [2, 14]: 20 g per 100 g of hydrophilic sur

CC(O)CO (centres unmarked) [Propylene Glycol]
maximum hydrophobic surfactant concentration giving a clear aqueous dispersion [2, 15]: 20 g per 100 g of hydrophilic sur | maximum hydrophobic surfactant concentration giving a clear aqueous dispersion [2, 16]: 28 g per 100 g of hydrophilic sur | maximum hydrophobic surfactant concentration giving a clear aqueous dispersion [2, 17]: 30 g per 100 g of hydrophilic sur

CC(=O)OCC(COC(C)=O)OC(C)=O [Triacetin]
maximum hydrophobic surfactant concentration giving a clear aqueous dispersion [2, 15]: 20 g per 100 g of hydrophilic sur | maximum hydrophobic surfactant concentration giving a clear aqueous dispersion [2, 16]: 28 g per 100 g of hydrophilic sur | maximum hydrophobic surfactant concentration giving a clear aqueous dispersion [2, 17]: 25 g per 100 g of hydrophilic sur

Source: patent US6451339B2, “Compositions and methods for improved delivery of hydrophobic agents” (Lipocine, Inc., priority 1999, dated 2002)
